In patent US20230000872A1, “TRPA1 ANTAGONIST FOR THE TREATMENT OF PAIN ASSOCIATED TO DIABETIC NEUROPATHIC PAIN” (Glenmark Pharmaceuticals S.A., priority 2014, published 2023):

Assays:
[1] = tested on: subjects with painful DPN; test: Phase II clinical study of Compound I 250 mg BID, 4 weeks, in subjects with painful diabetic neuropathy (Example 1); type: in vivo, human; design: key to Mean API score (24-hour): 11-point pain intensity NRS (0–10); key to Night-time API Score, mean score: API score on 11-point pain intensity NRS (0–10); conditions: for Sleep interference score, mean score: 11-point scale; for API Score, mean score: 11-point NRS; for % subject population with >30% Reduction from baseline API Score / % subject population with >50% Reduction from baseline API Score: end of 4 week treatment
From the text: Example 1: A Phase II Clinical Study to Evaluate Efficacy, Safety and Tolerability of Compound I in Subjects With Painful Diabetic Neuropathy
• To assess the efficacy of Compound I in the treatment of pain associated with diabetic peripheral neuropathy (DPN). • To evaluate the safety and tolerability of Compound I administered once daily (OD) or twice daily (BID) in subjects with painful DPN. • To investigate effect of Compound I on time to sustained improvement in pain, night-time pain, intensity of pain on neuropathic pain symptoms inventory (NPSI), and sleep in subjects with painful DPN. • To evaluate number of subjects who are responders on the […] of Change (PGIC) Questionnaire, Clinician Global Impression of Change (CGIC) Questionnaire; and number of subjects who achieve various levels of percent reduction in pain. • To investigate the pharmacokinetics (PK) of Compound I in subjects with DPN • To investigate effect of Compound I on the use of rescue medication (ibuprofen 400 mg to 600 mg four times a day or paracetamol 500 mg to 1000 mg two to three times a day) in subjects with painful DPN • To investigate effect of Compound I in subjects with painful DPN who have mechanical hyperalgesia and/or cold allodynia.
This was a multi-center, randomized, double-blind, placebo-controlled, parallel group, 4 week study of Compound I 250 mg BID in subjects with painful DPN. The study included a total of 138 subjects with DPN, randomized in a 1:1 ratio into 250 mg BID Compound I or Placebo. The study was conducted for a total period of 9 weeks as: up to a 2-week screening/washout period, a 1-week placebo-run in period, 4 weeks of treatment period and 2 weeks of follow-up period.
• Men and women (post-menopausal/surgically sterile only) aged between 18-75 (both inclusive) years • Subjects having diabetes mellitus (type 1 or 2) with a distal symmetric chronic sensorimotor painful peripheral neuropathy • A history of DPN pain for at least 6 months and no greater than 5 years. • DN4 “Douleur Neuropathique en 4” questions score of ≥4 • A baseline 24-hour average daily pain intensity score ≥4 and <9 as measured on a 11-point pain intensity NRS (numeric rating scale) • Subjects having stable glycemic control for at least one or two or three months prior to randomization having HbAlc (Glycosylated Hemoglobin) <8% • Subjects detected to have mechanical hyperalgesia and/or cold allodynia (detected with appropriate methodology)
Study medications were: • Placebo matching 250 mg Compound I during the placebo run-in period was taken orally BID in a fed state (30 minutes after breakfast/dinner) every day for day −7 to day −1 during Run-in period. The time interval between 2 consecutive doses must be 12 hours±60 min • 250 mg Compound I potassium granules or matching placebo during day-1 to day-28 treatment period. The time interval between 2 consecutive doses was 12 hours±60 min. • Reference therapy: Placebo to match investigational product, administered BID.
Clinical Endpoints were: • Change from baseline to end of treatment (i.e., baseline to end of week 4) in the mean 24-hour API score based on an 11-point pain intensity NRS • Change from baseline at the end of week 1, 2, 3, 4 and 6 in: • Mean night-time API (average pain intensity) Score (subject diary): night-time is defined as the time between going to bed at night and rising in the morning • Mean night-time worst pain intensity Score (subject diary): worst pain is defined as the subject's assessment of their worst pain intensity for the time period • Mean sleep interference Score (subject diary): A 11-point scale that asks subjects to select the score that best describes how much the pain interfered with sleep during the past 24 hours.

[2] = tested on: subjects with painful DPN and having preserved peripheral nerve function; test: Phase II clinical study of Compound I 250 mg BID, 4 week treatment plus 2 weeks follow up, in subjects with painful DPN and preserved peripheral nerve function (Example 2); type: in vivo, human
From the text: Example 2: A Phase II Clinical Study to Evaluate Efficacy, Safety and Tolerability of Compound I in Subjects With Painful Diabetic Neuropathy
• Objectives of this study were To assess the safety, efficacy and tolerability of Compound I in the treatment of pain associated with diabetic peripheral neuropathy (DPN) and to evaluate efficacy of Compound I administered once daily (OD) or twice daily (BID) in subjects with painful DPN and having preserved peripheral nerve function and to investigate effect of Compound I on time to sustained improvement in pain, night-time pain, intensity of pain on neuropathic pain symptoms inventory (NPSI), and sleep in subjects with painful DPN and having preserved peripheral nerve function. • This was a randomized, double-blind, placebo-controlled, parallel group, 4 week treatment followed by 2 weeks follow up study of Compound I 250 mg and placebo BID in subjects with painful DPN and having preserved peripheral nerve function. The study included a total of 136 subjects with DPN and having preserved peripheral nerve function. • Clinical Endpoints were change from baseline in mean 24-hour API score based on an 11-point pain intensity NRS at the end of week 4 and week 6 in • In ITT ([…]) population and • In subject having one or more from baseline average pain intensity (API) score of ≥5, Cold detection threshold >18° C. at baseline as determined by QST and Warm detection threshold <49° C. at baseline as determined by QST

[3] = Sub-group: Hypersensitivity to cold stimulus and/or mechanical stimulus, Week 4
[4] = Sub-group: Moderate to severe pain (NRS score 5-8) and hypersensitivity to cold stimulus and/or mechanical stimulus, Week 4
[5] = Sub-group: Moderate to severe pain (NRS score 5-8) and preserved peripheral sensory neurons, Week 4
[6] = Sub-group: Moderate to severe pain (NRS score 5-8), Week 4
[7] = Sub-group: Preserved peripheral sensory neurons (non-denervation by QST), Week 4
[8] = Week 0 (baseline), 250 mg BID oral
[9] = Week 4 vs baseline, 250 mg BID oral
[10] = Sub-group: Hypersensitivity to cold stimulus and/or mechanical stimulus
[11] = Sub-group: Moderate to severe pain (NRS score 5-8)
[12] = Sub-group: Moderate to severe pain (NRS score 5-8) and hypersensitivity to cold stimulus and/or mechanical stimulus
[13] = Sub-group: Moderate to severe pain (NRS score 5-8) and preserved peripheral sensory neurons
[14] = Sub-group: preserved peripheral sensory neurons
[15] = subjects with one or more of baseline API score ≥5, Cold detection threshold >18° C., Warm detection threshold <49° C. (QST), Week 4
[16] = subjects with one or more of baseline API score ≥5, Cold detection threshold >18° C., Warm detection threshold <49° C. (QST), Week 6

Cn1c(=O)c2c(CC(=O)Nc3nc(-c4ccc(F)c(C(F)(F)F)c4F)cs3)csc2n(C)c1=O [Compound I, N-{4-[2,4-difluoro-3-(trifluoromethyl)phenyl]-1,3-thiazol-2-yl}-2-(1,3-dimethyl-2,4-dioxo-1,2,3,4-tetrahydrothieno[2,3-d]pyrimidin-5-yl)acetamide]
Onset of Sustained improvement in 24-hour API Score ([1]; 250 mg BID oral): Score is achieved in 18 days | Mean API score (24-hour) ([1]; Sub-group: Hypersensitivity to cold stimulus and/or mechanical stimulus, Week 0 (baseline)): 6.1 | API score % Reduction from baseline [1, 3]: 32.78% | Mean API score (24-hour) [1, 3]: 4.1 | Mean API score (24-hour) ([1]; Sub-group: Moderate to severe pain (NRS score 5-8) and hypersensitivity to cold stimulus and/or mechanical stimulus, Week 0 (baseline)): 6.5 | API score % Reduction from baseline [1, 4]: 36.92% | Mean API score (24-hour) [1, 4]: 4.1 | Mean API score (24-hour) ([1]; Sub-group: Moderate to severe pain (NRS score 5-8) and preserved peripheral sensory neurons, Week 0 (baseline)): 6.4 | API score % Reduction from baseline [1, 5]: 35.93% | Mean API score (24-hour) [1, 5]: 4.1 | Mean API score (24-hour) ([1]; Sub-group: Moderate to severe pain (NRS score 5-8), Week 0 (baseline)): 6.3 | API score % Reduction from baseline [1, 6]: 33.33% | Mean API score (24-hour) [1, 6]: 4.2 | Mean API score (24-hour) ([1]; Sub-group: Preserved peripheral sensory neurons (non-denervation by QST), Week 0 (baseline)): 6.2 | API score % Reduction from baseline [1, 7]: 33.33% | Mean API score (24-hour) [1, 7]: 4.1 | Mean daily dose of rescue medication [1, 8]: 425 mg | Night-time API Score, mean score [1, 8]: 5.1 | Night-time Worst pain intensity Score, mean score [1, 8]: 5.3 | Sleep interference score, mean score [1, 8]: 4.5 | API Score, mean score ([1]; Week 0, 250 mg BID oral): 6.0 | Mean daily dose of rescue medication ([1]; Week 4, 250 mg BID oral): 111 mg | Night-time API Score, mean score ([1]; Week 4, 250 mg BID oral): 3.4 | Night-time Worst pain intensity Score, mean score ([1]; Week 4, 250 mg BID oral): 3.5 | API Score, mean score ([1]; Week 4, 250 mg BID oral): 4.1 | Sleep interference score, mean score ([1]; Week 4, 250 mg BID oral): 2.7 | API Score, % Reduction ([1]; Week 4 vs Week 0, 250 mg BID oral): 31.66% | Change in mean daily dose of rescue medication, % Reduction [1, 9]: 73.8% | Night-time API Score, % Reduction [1, 9]: 33.33% | Night-time Worst pain intensity Score, % Reduction [1, 9]: 33.96% | Sleep interference score, % Reduction [1, 9]: 40% | % subject population with >30% Reduction from baseline API Score [1, 10]: 59.1% | % subject population with >50% Reduction from baseline API Score [1, 10]: 36.4% | % subject population with >30% Reduction from baseline API Score [1, 11]: 58.6% | % subject population with >50% Reduction from baseline API Score [1, 11]: 34.5% | % subject population with >30% Reduction from baseline API Score [1, 12]: 66.7% | % subject population with >50% Reduction from baseline API Score [1, 12]: 44.4% | % subject population with >30% Reduction from baseline API Score [1, 13]: 56.7% | % subject population with >50% Reduction from baseline API Score [1, 13]: 40.0% | % subject population with >30% Reduction from baseline API Score [1, 14]: 52.9% | % subject population with >50% Reduction from baseline API Score [1, 14]: 35.3% | Mean API score ([2]; ITT population, Week 0 (baseline)): 6.0 | API score % Reduction from baseline ([2]; ITT population, Week 4): 32.16% | Mean API score ([2]; ITT population, Week 4): 4.07 | API score % Reduction from baseline ([2]; ITT population, Week 6): 40.16% | Mean API score ([2]; ITT population, Week 6): 3.59 | Mean API score ([2]; subjects with one or more of baseline API score ≥5, Cold detection threshold >18° C., Warm detection threshold <49° C. (QST), Week 0 (baseline)): 5.0 | API score % Reduction from baseline [2, 15]: 49.6% | Mean API score [2, 15]: 2.52 | API score % Reduction from baseline [2, 16]: 66.2% | Mean API score [2, 16]: 1.69
